For the test, the target named is T1, PfUBA1 (ubiquitin activating enzyme, E1; PF3D7_1225800) (Plasmodium falciparum, UniProt Q8I5F9).
T1 construct: Thr39 to Lys1140, N-terminal His10-tag, insect cells; with ubiquitin (Cy5-labelled, M1C)
Briefly: Cy5-ubiquitin~E1 thioesterification gel assay with recombinant PfUBA1. In kind it is biochemical.

A word on the IC50: it is the concentration needed to halve the response being measured.

T1 sequence (Q8I5F9 entry or part of it): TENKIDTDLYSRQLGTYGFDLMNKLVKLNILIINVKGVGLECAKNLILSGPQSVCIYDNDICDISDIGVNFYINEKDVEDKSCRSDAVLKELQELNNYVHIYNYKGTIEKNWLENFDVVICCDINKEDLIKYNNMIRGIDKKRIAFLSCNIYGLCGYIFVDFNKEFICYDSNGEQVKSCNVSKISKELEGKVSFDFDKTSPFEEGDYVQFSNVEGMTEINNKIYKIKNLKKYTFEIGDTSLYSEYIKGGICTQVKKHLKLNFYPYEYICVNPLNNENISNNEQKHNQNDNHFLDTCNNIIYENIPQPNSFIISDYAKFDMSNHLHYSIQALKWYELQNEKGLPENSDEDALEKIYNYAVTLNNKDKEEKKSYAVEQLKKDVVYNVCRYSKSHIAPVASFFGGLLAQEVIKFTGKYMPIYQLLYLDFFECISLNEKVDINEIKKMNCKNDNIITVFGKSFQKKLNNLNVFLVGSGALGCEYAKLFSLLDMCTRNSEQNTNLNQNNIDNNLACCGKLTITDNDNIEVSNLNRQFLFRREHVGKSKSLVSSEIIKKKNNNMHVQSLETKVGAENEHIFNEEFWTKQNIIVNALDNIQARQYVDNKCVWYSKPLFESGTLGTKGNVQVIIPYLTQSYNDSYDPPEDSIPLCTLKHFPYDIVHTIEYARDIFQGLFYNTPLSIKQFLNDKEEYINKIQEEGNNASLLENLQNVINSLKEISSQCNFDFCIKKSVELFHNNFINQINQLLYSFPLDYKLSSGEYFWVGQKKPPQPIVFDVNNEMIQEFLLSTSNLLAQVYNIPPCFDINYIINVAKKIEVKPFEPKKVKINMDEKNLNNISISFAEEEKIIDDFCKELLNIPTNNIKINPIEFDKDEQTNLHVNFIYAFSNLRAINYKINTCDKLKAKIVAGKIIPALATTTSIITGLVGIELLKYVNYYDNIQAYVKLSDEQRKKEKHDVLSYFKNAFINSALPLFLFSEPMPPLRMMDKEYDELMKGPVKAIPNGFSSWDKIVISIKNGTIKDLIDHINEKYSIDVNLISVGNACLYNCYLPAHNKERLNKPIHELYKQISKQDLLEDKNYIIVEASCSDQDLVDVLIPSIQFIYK

Turning to `NS(=O)(=O)OC[C@@H]1C[C@@H](n2ccc3c(N[C@H]4CCc5ccccc54)ncnc32)C[C@@H]1O` [MLN4924], the IC50 worked out at 47 ± 5 µM.

For the compound `NS(=O)(=O)OC[C@H]1C[C@@H](Nc2ccnc3cc(-c4cccc(SC(F)(F)F)c4)nn23)[C@H](O)[C@@H]1O` [MLN7243], the IC50 worked out at 1.4 ± 0.2 µM.
